According to patent publication US12030878B2 (BRISTOL-MYERS SQUIBB COMPANY, priority 2017, dated 2024):

Assays:
Type in all cases: cell-based
human TLR8 = target: T1, human TLR8 (Homo sapiens, UniProt Q9NR97); experiment: TLR8 inhibition reporter assay (HEK-Blue SEAP); conditions: HEK-Blue cells overexpressing human TLR8, stimulated with R848 15.9 μM, 22 hour incubation
T1 construct: host or cells: HEK-Blue cells
T1 sequence (Q9NR97 27-1041): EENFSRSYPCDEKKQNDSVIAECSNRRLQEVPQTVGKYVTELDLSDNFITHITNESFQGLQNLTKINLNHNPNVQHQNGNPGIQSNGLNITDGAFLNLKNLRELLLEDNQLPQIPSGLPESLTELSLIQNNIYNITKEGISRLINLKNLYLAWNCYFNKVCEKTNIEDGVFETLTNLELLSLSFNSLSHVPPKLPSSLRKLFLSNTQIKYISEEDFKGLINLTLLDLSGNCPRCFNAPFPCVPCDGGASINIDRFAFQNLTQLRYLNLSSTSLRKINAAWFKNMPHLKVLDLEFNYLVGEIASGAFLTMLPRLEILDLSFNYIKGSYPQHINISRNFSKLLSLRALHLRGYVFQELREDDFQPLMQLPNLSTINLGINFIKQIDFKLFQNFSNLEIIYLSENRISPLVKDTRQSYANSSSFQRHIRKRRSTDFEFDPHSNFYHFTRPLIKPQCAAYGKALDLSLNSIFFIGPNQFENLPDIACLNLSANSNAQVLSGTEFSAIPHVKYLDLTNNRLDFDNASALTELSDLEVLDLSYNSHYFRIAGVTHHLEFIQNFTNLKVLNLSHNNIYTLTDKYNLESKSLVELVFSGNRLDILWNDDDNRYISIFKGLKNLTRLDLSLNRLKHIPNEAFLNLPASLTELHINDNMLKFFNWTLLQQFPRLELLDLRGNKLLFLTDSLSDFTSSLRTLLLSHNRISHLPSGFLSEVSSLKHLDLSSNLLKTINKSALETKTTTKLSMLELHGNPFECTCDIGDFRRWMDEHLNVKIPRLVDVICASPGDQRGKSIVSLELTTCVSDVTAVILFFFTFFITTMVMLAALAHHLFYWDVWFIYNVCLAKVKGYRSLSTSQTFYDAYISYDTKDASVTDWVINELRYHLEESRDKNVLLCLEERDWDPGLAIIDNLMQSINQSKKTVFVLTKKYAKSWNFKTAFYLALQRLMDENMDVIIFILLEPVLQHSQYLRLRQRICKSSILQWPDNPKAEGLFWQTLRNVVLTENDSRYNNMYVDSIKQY
Summary of the method: (§1)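 Stimulation followed a 30 min room-temperature compound exposure (final 0.05 nM-50 μM): TLR7 cells with 7.5 μM gardiquimod, TLR8 with 15.9 μM R848, TLR9 with 5 nM ODN2006. After 22 h at 37 °C, secreted alkaline phosphatase was detected colorimetrically and inhibition calculated against DMSO and known-inhibitor controls.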

human TLR7 = target: T2, human TLR7 (Homo sapiens, UniProt Q9NYK1); experiment: TLR7 inhibition reporter assay (HEK-Blue SEAP); conditions: HEK-Blue cells overexpressing human TLR7, stimulated with gardiquimod 7.5 μM, 22 hour incubation
T2 construct: host or cells: HEK-Blue cells
T2 sequence (Q9NYK1 27-1049): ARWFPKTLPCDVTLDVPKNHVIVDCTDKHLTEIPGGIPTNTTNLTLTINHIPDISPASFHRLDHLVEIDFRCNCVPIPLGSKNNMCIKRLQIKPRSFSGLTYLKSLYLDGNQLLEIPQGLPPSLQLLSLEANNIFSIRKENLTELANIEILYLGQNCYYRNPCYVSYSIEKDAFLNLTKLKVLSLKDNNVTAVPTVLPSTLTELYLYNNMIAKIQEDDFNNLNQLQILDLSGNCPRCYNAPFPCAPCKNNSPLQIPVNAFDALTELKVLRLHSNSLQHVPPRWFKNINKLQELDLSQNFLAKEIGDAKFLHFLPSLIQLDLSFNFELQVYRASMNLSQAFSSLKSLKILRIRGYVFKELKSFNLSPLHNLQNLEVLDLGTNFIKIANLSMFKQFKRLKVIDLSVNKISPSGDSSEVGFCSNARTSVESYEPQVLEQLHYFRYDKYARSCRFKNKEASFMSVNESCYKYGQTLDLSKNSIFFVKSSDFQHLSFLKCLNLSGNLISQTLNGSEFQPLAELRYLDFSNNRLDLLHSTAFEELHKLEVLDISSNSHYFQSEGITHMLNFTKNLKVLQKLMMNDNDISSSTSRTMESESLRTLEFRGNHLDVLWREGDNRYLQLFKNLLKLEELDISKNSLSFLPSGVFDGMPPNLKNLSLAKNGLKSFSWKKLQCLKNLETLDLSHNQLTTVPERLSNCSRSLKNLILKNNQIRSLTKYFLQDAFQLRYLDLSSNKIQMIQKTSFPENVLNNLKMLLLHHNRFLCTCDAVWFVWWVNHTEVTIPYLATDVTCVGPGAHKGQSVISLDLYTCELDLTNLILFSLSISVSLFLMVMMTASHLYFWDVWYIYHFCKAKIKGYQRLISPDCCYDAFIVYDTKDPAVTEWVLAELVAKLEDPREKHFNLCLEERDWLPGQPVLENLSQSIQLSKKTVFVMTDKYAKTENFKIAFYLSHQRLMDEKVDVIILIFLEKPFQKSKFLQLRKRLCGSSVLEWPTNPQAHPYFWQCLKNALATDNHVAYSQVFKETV
Summary of the method: as §1

human TLR9 = target: T3, human TLR9 (Homo sapiens, UniProt Q9NR96); experiment: TLR9 inhibition reporter assay (HEK-Blue SEAP); conditions: HEK-Blue cells overexpressing human TLR9, stimulated with ODN2006 5 nM, 22 hour incubation
T3 construct: host or cells: HEK-Blue cells
T3 sequence (Q9NR96 26-1032): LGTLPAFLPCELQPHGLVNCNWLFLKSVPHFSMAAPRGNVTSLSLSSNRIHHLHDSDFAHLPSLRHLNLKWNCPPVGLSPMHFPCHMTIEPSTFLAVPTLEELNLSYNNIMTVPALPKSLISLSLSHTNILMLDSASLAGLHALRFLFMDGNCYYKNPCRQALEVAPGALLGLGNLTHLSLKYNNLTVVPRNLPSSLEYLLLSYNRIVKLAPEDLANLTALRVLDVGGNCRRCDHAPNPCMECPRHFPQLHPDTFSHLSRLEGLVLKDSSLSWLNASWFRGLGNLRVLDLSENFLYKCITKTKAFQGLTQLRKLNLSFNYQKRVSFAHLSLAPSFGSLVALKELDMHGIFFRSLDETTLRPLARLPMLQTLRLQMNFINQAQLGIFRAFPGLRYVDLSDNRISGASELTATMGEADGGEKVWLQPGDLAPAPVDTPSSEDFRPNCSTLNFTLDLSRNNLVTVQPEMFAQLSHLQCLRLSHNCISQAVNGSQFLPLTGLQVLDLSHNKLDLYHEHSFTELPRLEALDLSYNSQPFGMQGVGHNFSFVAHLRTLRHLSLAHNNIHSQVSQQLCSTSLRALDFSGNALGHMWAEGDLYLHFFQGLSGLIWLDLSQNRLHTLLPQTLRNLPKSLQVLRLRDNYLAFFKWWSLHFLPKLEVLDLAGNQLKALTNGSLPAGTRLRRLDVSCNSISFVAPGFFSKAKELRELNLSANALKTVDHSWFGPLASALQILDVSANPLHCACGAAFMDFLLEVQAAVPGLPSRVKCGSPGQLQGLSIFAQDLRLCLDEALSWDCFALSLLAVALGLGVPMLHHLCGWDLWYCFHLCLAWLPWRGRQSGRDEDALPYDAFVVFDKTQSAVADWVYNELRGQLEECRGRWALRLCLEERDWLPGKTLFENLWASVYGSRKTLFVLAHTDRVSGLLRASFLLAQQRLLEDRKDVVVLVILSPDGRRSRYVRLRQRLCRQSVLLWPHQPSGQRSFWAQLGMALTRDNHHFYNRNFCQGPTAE
Summary of the method: as §1

Compound	IC50 (human TLR8)	IC50 (human TLR7)	IC50 (human TLR9)
Cc1cc(-c2[nH]c3ccc(OC4CCNCC4)cc3c2C(C)C)cn2ncnc12 [Example 10, 6-(3-isopropyl-5-(piperidin-4-yloxy)-1H-indol-2-yl)-8-methyl-[1,2,4]triazolo[1,5-a] pyridine]	1.6 nM	0.6 nM	653 nM
Cc1cc(-c2[nH]c3ccc(OCC4CCN(C(=O)CN(C)C)CC4)cc3c2C(C)C)cn(C)c1=O [Example 97, 5-(5-((1-(dimethylglycyl)piperidin-4-yl)methoxy)-3-isopropyl-1H-indol-2-yl)-1,3-dimethylpyridin-2(1H)-one]	5.6 nM	3.5 nM	16800 nM
Cc1cc(-c2[nH]c3ccc(OC4CCN(C(C)C)CC4)cc3c2C(C)C)cc(C)n1 [Example 31, 2-(2,6-dimethylpyridin-4-yl)-3-isopropyl-5-((1-isopropylpiperidin-4-yl)oxy)-1H-indole]	1 nM	2.9 nM	530 nM
Cc1cc(-c2[nH]c3ccc(OCC4CCN(CC(=O)N(C)C)CC4)cc3c2C(C)C)cc(C)n1 [Example 80, 2-(4-(((2-(2,6-dimethylpyridin-4-yl)-3-isopropyl-1H-indol-5-yl)oxy)methyl)piperidin-1-yl)-N,N-dimethylacetamide]	8.5 nM	7.7 nM	398 nM
Cc1cc(-c2[nH]c3ccc(OCCN4CCC(F)(F)CC4)cc3c2C(C)C)cn2ncnc12 [Example 3, 6-(5-(2-(4,4-difluoropiperidin-1-yl)ethoxy)-3-isopropyl-1H-indol-2-yl)-8-methyl-[1,2,4]triazolo[1,5-a]pyridine]	11 nM	26.4 nM	18700 nM
CCc1c(-c2ccc(OC)c(OC)c2)[nH]c2ccc(OC3CCN(C4CCN(CC(C)C)CC4)CC3)cc12 [Example 118, 2-(3,4-dimethoxyphenyl)-3-ethyl-5-((1′-isobutyl-[1,4′-bipiperidin]-4-yl)oxy)-1H-indole]	9 nM	380 nM	309 nM
COc1ccc(-c2[nH]c3ccc(OCC(=O)NCCC(C)(C)O)cc3c2C(C)C)cc1OC [Example 153, 2-((2-(3,4-dimethoxyphenyl)-3-isopropyl-1H-indol-5-yl)oxy)-N-(3-hydroxy-3-methylbutyl)acetamide]	2530 nM	461 nM	> 50000 nM
COc1ccc(-c2[nH]c3ccc(OCC(=O)NC4CCN(C(C)C)CC4)cc3c2C(C)C)cc1OC [Example 139, 2-((2-(3,4-dimethoxyphenyl)-3-isopropyl-1H-indol-5-yl)oxy)-N-(1-isopropylpiperidin-4-yl)acetamide]	83.2 nM	623 nM	2440 nM
Cc1cc(-c2[nH]c3ccc(O[C@H]4CCCN(C(=O)CN(C)C)C4)cc3c2C(C)C)cn(C)c1=O [Example 98, (S)-5-(5-((1-(dimethylglycyl)piperidin-3-yl)oxy)-3-isopropyl-1H-indol-2-yl)-1,3-dimethylpyridin-2(1H)-one]	16.5 nM	7.6 nM	11100 nM
Cc1cc(-c2[nH]c3ccc(OCC4CCN(C(C)C)CC4)cc3c2C(C)C)cn2ncnc12 [Example 42, 6-(3-isopropyl-5-((1-isopropylpiperidin-4-yl)methoxy)-1H-indol-2-yl)-8-methyl-[1,2,4]triazolo[1,5-a]pyridine]	0.4 nM	0.2 nM	350 nM
Cc1cc(-c2[nH]c3ccc(OC4CCN(C(C)C)CC4)cc3c2C(C)C)ccn1 [Example 186, 3-isopropyl-5-((1-isopropylpiperidin-4-yl)oxy)-2-(2-methylpyridin-4-yl)-1H-indole]	3.1 nM	70.7 nM	2670 nM
Cc1cc(-c2[nH]c3ccc(OCC4CCN(C(C)C)CC4)cc3c2C(C)C)cc(C)n1 [Example 35, 2-(2,6-dimethylpyridin-4-yl)-3-isopropyl-5-((1-isopropylpiperidin-4-yl)methoxy)-1H-indole]	2.7 nM	4.9 nM	317 nM
Cc1cc(-c2[nH]c3ccc(OCC4CCCNC4)cc3c2C(C)C)ccn1 (stereo not drawn) [Example 180, 3-isopropyl-2-(2-methylpyridin-4-yl)-5-(piperidin-3-ylmethoxy)-1H-indole]	3.5 nM	37.7 nM	1830 nM
CCc1c(-c2ccnc(C)c2)[nH]c2ccc(O[C@H]3CCNC3)cc12 [Example 182, (S)-3-ethyl-2-(2-methylpyridin-4-yl)-5-(pyrrolidin-3-yloxy)-1H-indole]	19.2 nM	400 nM	566 nM
COc1ccc(-c2[nH]c3ccc(OCC(=O)N4CCNCC4)cc3c2C(C)C)cc1OC [Example 129, 2-((2-(3,4-dimethoxyphenyl)-3-isopropyl-1H-indol-5-yl)oxy)-1-(piperazin-1-yl)ethan-1-one]	45.1 nM	57.9 nM	2610 nM
